Data reported in paper PMC7472048 (Viruses, 2020).

What was measured:
r3Can = assay: organism not typed; type: cell-based, Junín virus (JUNV) Candid#1 strain; settings: Vero, read-out: r3Can (Vero cell) EC50
in vitro [1] = settings: African green monkey (Chlorocebus aethiops)
rCL-13/ZsG = type: cell-based, lymphocytic choriomeningitis virus (LCMV)
rLASV = assay: microbe, parasite or virus in culture; type: cell-based, Lassa virus (LASV); settings: Mammarenavirus lassaense, A549, read-out: rLASV (A549 cell) EC50
LASV Z-mediated budding = type: cell-based, Lassa virus (LASV)
in vitro [2] = settings: human
rLCMV/ZsG = assay: microbe, parasite or virus in culture; type: cell-based, lymphocytic choriomeningitis virus (LCMV); settings: Mammarenavirus choriomeningitidis, A549, 48 h, read-out: rLCMV (A549 cell) EC50
LCMV CL-13 = test system: LCMV CL-13; design: species or system C57BL/6 mice; settings: mouse, in vivo, 150 mg/kg/day
rLASV/GFP = type: cell-based, Lassa virus (LASV)
[3] = test system: IFNB and ISG mRNA expression; type: cell-based, Homo sapiens
r3Can/GFP = type: cell-based, Junín virus (JUNV)
influenza A virus = settings: mouse, in vivo; cited from earlier work

With `COc1cccc(-c2ccc(NC(=O)C3=C(C(=O)O)CCC3)c(F)c2)c1` [Cmp 4, vidofludimus calcium] the EC50 (r3Can) was 1680 nM, the CC50 (in vitro [1]) was 5920 nM and the “Cmp 4-induced antiviral effect with exogenous uridine” value (rCL-13/ZsG) was “reverted”. For the same compound, the EC50 (rLASV) was 3020 nM, the “Z budding efficiency, ratio ZVLP:(ZVLP+ZWCL)” value (LASV Z-mediated budding) was “very modest, but statistically significant, effect” and the CC50 (in vitro [2]) was 54400 nM. For the same compound, the EC50 (rLCMV/ZsG) was 1280 nM, the “body weight loss and recovery versus vehicle control” value (LCMV CL-13) was “less body weight loss and faster recovery” and the “viral load (serum virus titers)” value (LCMV CL-13) was “did not cause a significant reduction”.
For `Cc1c(-c2ccc(-c3ccccc3F)cc2)nc2ccc(F)cc2c1C(=O)O` [Brequinar], the EC50 (r3Can) was 40 nM, the CC50 (in vitro [1]) was 47200 nM and the rLASV/GFP propagation (rLASV/GFP) was “strongly inhibited”. For the same compound, the EC50 (rLASV) was 63 nM, the “mRNA levels of IFNB and ISGs in LCMV-infected cells” value [3] was “significantly decreased” and the “ISG15 and IFIT1 expression in non-infected A549 cells” value ([3]; 5 µM, 48 h) was “moderately upregulated”. The “expression of IFNB in non-infected A549 cells” value ([3]; 5 µM, 48 h) was “Neither Cmp 1 nor brequinar treatment significantly affected”, the CC50 (in vitro [2]) was 79000 nM and the EC50 (rLCMV/ZsG) was 41 nM. For the same compound, the r3Can/GFP propagation (r3Can/GFP) was “strongly inhibited”.
For `CCOc1ccc(-c2cc(C(=O)O)c3cc(Br)ccc3n2)cc1` [FA-613], the survival (influenza A virus) is given as “increased survival”.
